In patent publication US20240016773A1, “COMPOSITIONS AND METHODS FOR DIAGNOSIS AND TREATMENT OF CONDITIONS RELATED TO AGING” (EPITRACKER, INC., priority 2018, published 2024):

How the values were obtained:
[1] = test system: Primary endothelial cells stimulated with IL-1β, TNF-α, and IFNγ; experiment: Second cell-based system: Th1 inflammatory and prothrombotic environment; parameters: species or system human
Experimental: (§1) This study examined the impact of synthetic pentadecanoic acid (C15:0) at four concentrations (740 nm and 2.2, 6.7, and 20 μM) on three primary human cell-based activity systems that were exposed to agents that mimicked allergic, thrombotic, and fibrotic disease states. In general, protein-based biomarkers in these systems were measured and compared with controls. Pentadecanoic acid was considered ‘active’ when 2 or more consecutive concentrations changed a given biomarker in the same direction relative to vehicle controls, were outside of the significance envelope of internal controls, and had at least one concentration with an effect size greater than 20% (log 10 ratio >0.1).
The second cell-based system recapitulated a Th1 inflammatory and prothrombotic environment. Primary endothelial cells were stimulated with IL-1β, TNF-α, and IFNγ and incubated with pentadecanoic acid for 24 hours. In addition to controls that were not treated with pentadecanoic acid, a negative, non-stimulated system was also included. Urokinase plasminogen activator receptor (uPAR) activation in this system was measured and compared with controls.

[2] = test system: SAg system: venular endothelial cells, peripheral blood mononuclear cells (TCR ligands); experiment: BioMAP Diversity PLUS, SAg system; type: cell-based, human
Text: (§2) The Diversity PLUS panel allows test agent characterization in an unbiased way across a broad set of systems modeling various human disease states. These systems are designed to model complex human tissue and disease biology of the vasculature, skin, lung, and inflammatory tissues. Quantitative measurements of 148 biomarker activities across this broad panel, along with comparative analysis of biological activities from known bioactive agents, were used to predict and compare the efficacy and function of each selected compound at four concentrations (740 nm and 2.2, 6.7 and 20 μM).
(§3) BioMAP systems are constructed with one or more primary cell types from healthy human donors, with stimuli (such as cytokines or growth factors) added to capture relevant signaling networks that naturally occur in human tissue or pathological conditions. Vascular biology is modeled in both a Th1 (3C system) and a Th2 (4H system) inflammatory environment, as well as in a Th1 inflammatory state specific to arterial smooth muscle cells (CASM3C system). Additional systems recapitulate aspects of the systemic immune response including monocyte-driven Th1 inflammation (LPS system) or T cell stimulation (SAg system), chronic Th1 inflammation driven by macrophage activation (lMphg system) and the T cell-dependent activation of B cells that occurs in germinal centers (BT system). The BE3C system (Th1) and the BF4T system (Th2) represent airway inflammation of the lung, while the MyoF system models myofibroblast-lung tissue remodeling. Lastly, skin biology is addressed in the KF3CT system modeling Th1 cutaneous inflammation and the HDF3CGF system modeling wound healing.
(§4) Each test agent generates a signature BioMAP profile that is created from the changes in protein biomarker readouts within individual system environments. Biomarker readouts (7-17 per system) are selected for therapeutic and biological relevance, are predictive for disease outcomes or specific drug effects and are validated using agents with known mechanism of action (MoA). Each readout is measured quantitatively by immune-based methods that detect protein (e.g., ELISA) or functional assays that measure proliferation and viability. BioMAP readouts are diverse and include cell surface receptors, cytokines, chemokines, matrix molecules and enzymes. In total, the Diversity PLUS panel contains 148 biomarker readouts that capture biological changes that occur within the physiological context of the particular BioMAP system. Specific BioMAP activities have been correlated to in vivo biology, and multiparameter BioMAP profiles have been used to distinguish compounds based on MoA and target selectivity across diverse physiological systems.
(§5) Activated BioMAP systems were incubated with each compound for 24 to 72 hours. Protein-based biomarkers from activated cell systems were measured and compared with non-treated control systems.

[3] = test system: obese mouse model (C57BL/6J mice fed a high fat diet); experiment: High fat diet obese mouse model, daily oral pentadecanoic acid; type: in vivo
Experimental: This study examined the impact of daily oral administration of synthetic pentadecanoic acid (C15:0) on total and LDL cholesterol in an obese mouse model. Twenty C57BL/6J mice were fed a high fat diet (HFD) (D12492, 60% kcals fat) for 8 weeks. Study mice were then divided into the following two groups of ten: vehicle controls and pentadecanoic acid—treated (5 mg/kg body weight). The test article was a synthetic powder form stable at room temperature and purchased from Sigma-Aldrich (Products W433400 (≥99% C15:0). The test article was provided daily via gastric gavage for 12 weeks (84 days) while continuing ad libitum access to the HFD. Total cholesterol and low-density lipoprotein (LDL) cholesterol were measured at Day 0 and Day 84. Data from the treated group were compared to the control group using Wilcoxon rank sum analyses. Significance was defined as a P value less than or equal to 0.05.

[4] = test system: CD19+ B cells and peripheral blood mononuclear cells stimulated with α-IgM and TCR ligands; experiment: First cell-based system: T cell-dependent activation of B cells (allergy); parameters: species or system human
Experimental: as §1
The first cell-based system recapitulated T cell-dependent activation of B cells that occurs in germinal centers to mimic allergy disease states. CD19^+ B cells and peripheral blood mononuclear cells were stimulated with α-IgM and TCR ligands and incubated with pentadecanoic acid for 168 hours. In addition to controls that were not treated with pentadecanoic acid, a negative, non-stimulated system was also included. Secreted IgG was measured and compared with controls.

[5] = test system: twelve different human primary cell systems mimicking various disease states; experiment: BioMAP Diversity PLUS panel, twelve human primary cell systems (summary by disease); type: cell-based; parameters: key: x: Significantly reduced cell-based biomarkers relevant to specific diseases and conditions
Text: As a proof of concept, 14 compounds were selected from our compound library based on predicted efficacy in lowering inflammation in dolphins. Pure synthetic forms of these compounds were screened for cell-based activities (relevant to multiple aging-associated diseases and diseases that may impact longevity) using twelve different human primary cell systems mimicking various disease states (TABLE 4—description of primary human cell systems used to screen selected compounds in library).
as §2, §3, §4, §5

[6] = all four concentrations (740 nm and 2.2, 6.7, and 20 μM)

CCCCCCCCCCCCCCC(=O)O [Pentadecanoic acid, pentadecanoic acid]
uPAR (FIG. 3) ([1]; 24 hours incubation, 6.7 μM and 20 μM bioactive, vs controls): increases | Cytotoxicity [1, 6]: non-cytotoxic | Significant log10 reduction vs nontreated controls: Monocyte chemoattractant protein 1 (MCP-1) ([2]; 6.7 μM): −0.18 log10 | Significant log10 reduction vs nontreated controls: Monocyte chemoattractant protein 1 (MCP-1) ([2]; 20.0 μM): −0.15 log10 | Tolerability of test article ([3]; 5 mg/kg daily gavage, 12 weeks, HFD mice): tolerated the test article throughout the study | Total Cholesterol ([3]; Index at Day 84, 5 mg/kg dose daily via gastric gavage for 12 weeks, HFD mice, P 0.032 vs HFD control): 183 + 25 mg/dl | LDL Cholesterol ([3]; Index at Day 84, 5 mg/kg dose daily via gastric gavage for 12 weeks, HFD mice, P 0.036 vs HFD control): 6.3 ± 3.6 mg/dL | Percent body weight gain compared to control mice on high fat diet alone ([3]; oral daily for 12 weeks, obese mice on high fat diet): lower percent body weight gain | Early mortalities ([3]; treated group, 5 mg/kg daily gavage, 12 weeks): no early mortalities | Secreted IgG (FIG. 2) ([4]; 168 hours incubation, 6.7 μM and 20 μM bioactive, vs controls): dose-dependent decreases | Cytotoxicity [4, 6]: non-cytotoxic | Significantly reduced cell-based biomarkers relevant to: Allergy ([5]; Table 6): x | Significantly reduced cell-based biomarkers relevant to: Asthma ([5]; Table 6): x | Significantly reduced cell-based biomarkers relevant to: Autoimmunity ([5]; Table 6): x | Significantly reduced cell-based biomarkers relevant to: Hematological oncology ([5]; Table 6): x | Significantly reduced cell-based biomarkers relevant to: SLE ([5]; Table 6): x | Significantly reduced cell-based biomarkers relevant to: T-cell dependent B cell proliferation ([5]; Table 6): x | Significantly reduced cell-based biomarkers relevant to: Chronic inflammation ([5]; Table 7): x | Significantly reduced cell-based biomarkers relevant to: Organ transplantation ([5]; Table 7): x | Significantly reduced cell-based biomarkers relevant to: Psoriasis ([5]; Table 7): x | Significantly reduced cell-based biomarkers relevant to: Rheumatoid arthritis ([5]; Table 7): x | Significantly reduced cell-based biomarkers relevant to: Thl type inflammation ([5]; Table 7): x | Significantly reduced cell-based biomarkers relevant to: Crohn's disease ([5]; Table 8): x | Significantly reduced cell-based biomarkers relevant to: Fibrosis ([5]; Table 8): x | Significantly reduced cell-based biomarkers relevant to: Hematological oncology ([5]; Table 8): x | Significantly reduced cell-based biomarkers relevant to: Stromal biology in tumors ([5]; Table 8): x
